Experimental data: US12612395B2, “Rocaglate derivatives and uses thereof” (TRUSTEES OF BOSTON UNIVERSITY, priority 2023, dated 2026)
Where two headings read alike, the source gives them in different places.

How the values were obtained:
GBM0308 neurospheres = assay: Neurosphere formation assay (single neurosphere, PI/Hoechst); type: cell-based; details: 72 hours
Description: To gain additional mechanistic insights into GBM cell death induced by (−)-20, the inventors conducted several functional assays. The inventors first derived a single neurosphere from GBM0308 cells cultured in stem cell conditions, which was treated with either DMSO or (−)-20 at varying doses for three days followed by staining with PI and Hoechst dyes and subsequent imaging. […] To capture the kinetics of apoptotic events, the inventors employed caspase 3/7 staining of GBM0308 neurospheres treated with either DMSO or (−)-20 and subsequently evaluated at three timepoints over a 48-hour period. […] (FIG. 5B).
Neurosphere Formation Assays: Single neurospheres were generated by seeding GBM0308 cells (400 cells per well) in a 384-well ultra-low attachment round bottom microplate (Nexcelom Bioscience, ULA-384 U). The plates were then centrifuged at 300×g for 10 minutes to cluster cells at the bottom of the wells, followed by incubation at 37° C. and 5% CO2 for 4 days to allow the formation of single neurospheres and treated with either DMSO or drugs at concentrations of 3.3, 1.11, 0.37, 0.12, 0.041, 0.013, 0.004 μM. On Day 7, neurospheres were stained with propidium iodide and Hoechst, as described above. The “neurosphere 1+Mask” application was used to measure the fluorescent intensities of PI, using Celigo cytometer as described previously.^70

GBM0308 CSCs = assay: Dose-response killing of GBM CSCs (PI/Hoechst, Celigo cytometer); type: cell-based; details: for CSCs Max. observed efficacy (% dead cells) / Emax: 72 h; for Emax: read-out: CSC Max. observed efficacy (% dead cells), Table 7
Source text: (§1) The inventors first evaluated a cohort of seven rocaglate translation inhibitors (1, 3-7, and 9, FIG. 1A and Table 1, compounds 2 and 8 were not tested due to unavailability). To assay for compounds that selectively affect GBM CSCs, the inventors employed the patient-derived tumor-initiating cell (TIC) cell line […] that forms neurospheres (consisting exclusively of tumor-initiating cells or CSCs) when cultured in neurobasal (NBE) medium. Upon exposure to serum and growth factor withdrawal, however, the cell line differentiates, acquires a flattened morphology, and forms a non-CSC population.^20 Thus, compounds can be tested in parallel to assess their effect on GBM CSCs vs. GBM non-CSCs as separate populations with a clean and robust response. This approach has been previously used to perform RNAi-based genetic screens to identify modulators of CSCs.^20 In this study, GBM0308 cells, cultured in stem cell conditions to form CSCs or in medium containing serum to induce differentiation into a non-CSC population, were treated in parallel with compounds at varying doses. Three days post-treatment, propidium iodide (PI) and Hoechst staining were performed and quantified using a Celigo image cytometer. Hoechst dye stained all […] nucleated cells, while PI exclusively stained dead cells. Cell viability and the percentage of cell death were then determined.
(§2) Cell Culture: Glioblastoma stem cell lines GBM0308, BT145, and BT112 were cultured in neurobasal (NBE medium) containing N-2 and B-27 supplements, EGF, bFGF, L-glutamine, and Penicillin-Streptomycin), as described previously.^19 Adherent GBM cells were cultured in serum-containing DMEM media (Invitrogen) supplemented with 10% fetal bovine serum (Corning Cellgro™). Cells were incubated at 37° C. and 5% CO2 to allow neurosphere formation. For seeding and subculturing, the neurospheres were gently trypsinized with 0.025% trypsin to form a single-cell suspension.
(§3) Dose-Response Testing in GBM Cells: Briefly, on day 1, cells were seeded in triplicate. For CSCs, 1500 cells/well were plated in a low attachment 96-well plate with NBE media and incubated for 3 days at 37° C. and 5% CO2 to allow the formation of neurospheres. For non-CSCs, 3000 cells/well were plated in a 96-well plate with DMEM media supplemented with 10% FBS. Similarly, the assay plates were also incubated for the same duration. Compound treatments started on day 4. Each compound was resuspended in DMSO and then diluted to different concentrations in media to a final concentration of DMSO less than 1%. The compounds were added at concentrations of 10, 3.3, 1.11, 0.37, 0.12, 0.041, 0.013, and 0.004 µM, respectively. DMSO-treated cells served as a control. After 72 h incubation with the compounds, fluorescent stains, propidium iodide, and Hoechst 33342 (Life Technologies, Carlsbad, CA), were used to stain the GBM cells to determine cell viability. A staining solution in 1×PBS was prepared by mixing PI and Hoechst 33342 to working concentrations of 2.5 μM and 20 μM, respectively. 20 μL of this staining solution was added per well, and plates were incubated at 37° C. and 5% CO2 for 60 min. After incubation, plates were read by Celigo imaging cytometer using an inbuilt Celigo application; Cell Viability (Dead+Total). For the viability measurement, the total number of neurospheres/cells and dead neurospheres/cells in each well were counted by the cytometer. The percentage of PI+ cells was normalized to DMSO and plotted against the drug concentration to calculate the EC50 with a four-parameter, variable-slope dose-response curve with an upper constraint of <100% dead cells and a lower constraint of =0% dead cells (GraphPad Prism v.10.0.0). For all dose response experiments, the experimental maximal efficacy (maximum observed % cell death) is reported. Relative EC50 values are reported for all compounds killing >50% of cells.

GBM0308 non-CSCs = assay: Dose-response killing of GBM non-CSCs (PI/Hoechst, Celigo cytometer); type: cell-based; details: for Non-CSCs Max. observed efficacy (% dead cells) / Emax: 72 h; for Emax: Homo sapiens, read-out: Non-CSC Max. observed efficacy (% dead cells), Table 7, cell line not given
Source text: as §1, §2, §3

eIF4A paralogs (eIF4A1) = assay: PISA assay in GBM0308 cell lysates, eIF4A; type: binding, human; details: GBM0308 lysate, compound 10 μM, AMP-PNP and (AG)8 RNA added
Source text: (§4) Derivatization-free target identification using a modified proteome integral solubility alteration (PISA) assay. The inventors next pursued proteome-wide target identification to better understand the target profiles of CSC-selective rocaglates. To enable cross-compound comparisons of target engagement, the inventors opted to use the Proteome Integral Solubility Alteration (PISA) assay,^29 a derivative of the mass spectrometry-based Cellular Thermal Shift Assay (MS-CETSA). In MS-CETSA,^30,31 target engagement is inferred through proteome-wide analysis of compound-induced changes to protein thermal stability; proteins with a shift in their half-maximal thermal denaturation temperature upon compound treatment are flagged as potential targets. The PISA assay obviates the need for MS-CETSA-derived thermal denaturation curves through curve integration by pooling of individual temperature points into a single “integral” sample for each treatment condition, thereby increasing throughput (FIG. 9). In contrast to MS-CETSA (which relies on curve comparisons), PISA determinations are performed by simply comparing soluble protein abundance levels between compound- and DMSO-treated samples. Importantly, protein fold-change measurements in PISA experiments generally scale with the thermal shift derived from CETSA experiments, and the magnitude of a thermal shift can inform on relative affinity between compounds and individual targets.^30,32-25 Maximal stability changes are protein-specific,^36 however, precluding estimations of preference for one target over another. Thus, PISA allows for simultaneous target profiling and comparisons of binding affinity between different compounds within a given target.
(§5) Of note, we also detected stabilization of DDX3Y, a paralog which shares >90% sequence similarity with DDX3X.
PISA assay in GBM0308 cell lysates: The PISA assay was performed in lysates as described by Gaetani and coworkers^S2 with slight modification. Pelleted GBM0308 cells were resuspended in ice-cold lysis buffer (1×PBS pH 7.4, 2 mM MgCl2, 0.5 mM AMP-PNP, 1 μM (AG)8 RNA, HALT protease inhibitor cocktail EDTA-free) and subjected to three freeze-thaw cycles with liquid nitrogen to extract lysate proteins. Thawing was performed at room temperature until ˜80% thawed, then completed on ice. Lysate was clarified by centrifugation for 10 minutes at 20,000 RCF and 4° C., transferred to a fresh Eppendorf tube, then centrifuged again for 10 minutes at 20,000 RCF and 4° C. to ensure removal of debris. Lysate concentration was determined using a Pierce BCA Protein Assay Kit and adjusted to 2.0 mg/mL in lysis buffer. Lysate was mixed 1:1 with a 2× solution of test compound or DMSO in lysis buffer, gently aspirated to ensure proper mixing, and incubated at room temperature for 10 minutes. […]

DDX3X = molecular target: T1, DDX3X (Homo sapiens, UniProt O00571); assay: PISA assay in GBM0308 cell lysates, DDX3X; type: binding; details: GBM0308 lysate, compound 10 μM, AMP-PNP and (AG)8 RNA added
T1 construct: endogenous in cells; host or cells: GBM0308 glioblastoma stem cells (lysate)
T1 sequence (O00571 whole entry): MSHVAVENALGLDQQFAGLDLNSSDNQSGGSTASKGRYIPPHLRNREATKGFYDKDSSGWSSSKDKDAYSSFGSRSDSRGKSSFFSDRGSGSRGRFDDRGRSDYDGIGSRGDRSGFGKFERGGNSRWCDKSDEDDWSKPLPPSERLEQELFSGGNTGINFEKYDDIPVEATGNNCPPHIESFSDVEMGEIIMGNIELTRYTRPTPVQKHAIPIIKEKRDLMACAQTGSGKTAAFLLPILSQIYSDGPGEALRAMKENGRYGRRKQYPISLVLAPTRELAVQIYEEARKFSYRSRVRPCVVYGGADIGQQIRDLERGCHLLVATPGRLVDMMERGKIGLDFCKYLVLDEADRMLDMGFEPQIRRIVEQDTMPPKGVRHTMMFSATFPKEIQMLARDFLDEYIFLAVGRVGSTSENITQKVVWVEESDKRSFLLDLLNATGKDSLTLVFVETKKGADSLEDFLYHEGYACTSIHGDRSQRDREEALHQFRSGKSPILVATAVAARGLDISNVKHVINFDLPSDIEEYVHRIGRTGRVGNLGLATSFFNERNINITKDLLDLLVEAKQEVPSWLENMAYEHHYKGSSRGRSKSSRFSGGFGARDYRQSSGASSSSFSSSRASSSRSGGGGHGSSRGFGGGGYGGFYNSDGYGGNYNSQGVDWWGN
Source text: as §4, §5
PISA assay in GBM0308 cell lysates: The PISA assay was performed in lysates as described by Gaetani and coworkers^S2 with slight modification. […] Lysate concentration was determined using a Pierce BCA Protein Assay Kit and adjusted to 2.0 mg/mL in lysis buffer. […]

[1] = Table 1, GBM0308 CSCs, up to 10 μM
[2] = Table 1, GBM0308 CSCs, 72 h treatment, relative EC50, given for compounds causing at least 50% cell death, read-out: CSCs EC50
[3] = Table 1, GBM0308 non-CSCs, up to 10 μM
[4] = Homo sapiens, cell line not given
[5] = Homo sapiens, read-out: CSC EC50 (μM), Table 7, cell line not given

Compound | CSCs Max. observed efficacy (% dead cells) (GBM0308 CSCs; [1]) | Non-CSCs Max. observed efficacy (% dead cells) (GBM0308 non-CSCs; [3]) | Emax (GBM0308 CSCs; [4]) | EC50 (GBM0308 CSCs; [5]) | Emax (GBM0308 non-CSCs) | further results
RK-33 [reference compound] | – | – | – | – | – | concentration required to observe a noticeable effect on neurosphere size (GBM0308 neurospheres): > 3 µM
COc1ccc([C@@]23Oc4cc(OC)cc(OC)c4[C@]2(O)[C@H](O)[C@H](C(=O)O)[C@H]3c2ccccc2)cc1 [(+)-10, rocaglaic acid] | – | – | – | – | – | cytotoxic activity against CSCs, in words (GBM0308 CSCs; GBM0308 CSCs): limited activity; CSCs Max. observed efficacy (% dead cells) (GBM0308 CSCs; Table 2, GBM0308 CSCs, highest tested concentration 10 μM): 58%; EC50 (GBM0308 CSCs; Table 2, GBM0308 CSCs, 72 h treatment, relative EC50, read-out: CSCs EC50): 7.08 µM; cytotoxic activity against non-CSCs, in words (GBM0308 non-CSCs; GBM0308 non-CSCs): limited activity; Non-CSCs Max. observed efficacy (% dead cells) (GBM0308 non-CSCs; Table 2, GBM0308 non-CSCs, highest tested concentration 10 μM): 30%
COc1ccc([C@@]23Oc4cc(OC)cc(OC)c4[C@]2(O)[C@H](O)[C@H](C(=O)N(C)OC)[C@H]3c2ccccc2)cc1 (racemic) [rac-6, rohinitib, reference compound] | 81% | 25% | – | – | – | EC50 (GBM0308 CSCs; [2]): 0.922 µM
CCN(CC)S(=O)(=O)NC(=O)[C@H]1[C@@H](O)[C@@]2(O)c3c(OC)cc(OC)cc3O[C@@]2(c2ccc(Br)cc2)[C@@H]1c1ccccc1 [ZW-12-35, (1R,2R,3S,3aR,8bS)-3a-(4-bromophenyl)-N—(N,N-diethylsulfamoyl)-1,8b-dihydroxy-6,8-dimethoxy-3-phenyl-2,3,3a,8b-tetrahydro-1H-cyclopenta[b]benzofuran-2-carboxamide] | – | – | 92% | 1.18 µM | 16% | –
COc1cc(OC)c2c(c1)O[C@@]1(c3ccc(C#N)cc3)[C@H](c3ccccc3)[C@@H](C(=O)NS(=O)(=O)N(C)C)[C@@H](O)[C@@]21O [ZW-12-30, (1R,2R,3S,3aR,8bS)-3a-(4-cyanophenyl)-N—(N,N-dimethylsulfamoyl)-1,8b-dihydroxy-6,8-dimethoxy-3-phenyl-2,3,3a,8b-tetrahydro-1H-cyclopenta[b]benzofuran-2-carboxamide] | – | – | 94% | 0.632 µM | 21% | –
aglaroxin C [rac-4, reference compound] | 42% | 26% | – | – | – | CSCs Max. observed efficacy (% dead cells) (GBM0308 CSCs; Table 1, GBM0308 CSCs, up to 10 μM, listed as 4): ≤ 50%
rocaglamide A [(−)-1, reference compound] | 84% | 31% | – | – | – | EC50 (GBM0308 CSCs; [2]): 0.387 µM; thermal stabilization of eIF4A paralogs (PISA), in words (eIF4A paralogs (eIF4A1)): thermal stabilization; thermal stabilization of DDX3X (PISA), in words (DDX3X): thermal stabilization
COc1cc(OC)c2c(c1)O[C@@]1(c3ccc(C(F)(F)F)cc3)[C@H](c3ccccc3)[C@@H](C(=O)NS(=O)(=O)N(C)C)[C@@H](O)[C@@]21O [ZW-12-29, (1R,2R,3S,3aR,8bS)—N—(N,N-dimethylsulfamoyl)-1,8b-dihydroxy-6,8-dimethoxy-3-phenyl-3a-(4-(trifluoromethyl)phenyl)-2,3,3a,8b-tetrahydro-1H-cyclopenta[b]benzofuran-2-carboxamide] | – | – | 57% | 5.63 µM | 26% | –
